# Data as given in article PMC10599482 (Chemical Science, 2023).
# Experiment: CD spectroscopy, percent helicity
# Type: physicochemical
# Conditions: 50.0% TFE aqueous solution, 0.1 mg/mL peptide, 20 °C, calculated from [θ]222
smiles,measurement,value
CC[C@H](C)[C@H](NC(=O)[C@H](C)NC(=O)[C@H](CCC(=O)O)NC(=O)[C@H](CCC(=O)O)NC(=O)[C@H](CC(C)C)NC(=O)[C@H](CCCCN)NC(=O)[C@H](CCCCN)NC(=O)[C@H](CCSC)NC(=O)[C@H](CCC(=O)O)NC(=O)[C@H](Cc1ccc(O)cc1)NC(=O)[C@H](CCC(=O)O)NC(=O)[C@H](CC(C)C)NC(=O)[C@H](CC(=O)O)NC(=O)[C@H](CC(C)C)NC(=O)[C@H](Cc1ccccc1)NC(=O)[C@@H](NC(=O)[C@@H](NC(=O)[C@H](CC(N)=O)NC(=O)[C@@H](NC(=O)[C@H](CCC(N)=O)NC(=O)[C@H](CC(=O)O)NC(=O)[C@H](CC(C)C)NC(=O)[C@H](CO)NC(C)=O)[C@@H](C)CC)C(C)C)[C@@H](C)O)C(=O)N[C@@H](CCCCN)C(=O)N[C@@H](CCCCN)C(=O)N[C@@H](CC(C)C)C(=O)N[C@@H](CCC(=O)O)C(=O)N[C@@H](CCC(=O)O)C(=O)N[C@@H](CO)C(=O)N[C@@H](Cc1ccc(O)cc1)C(=O)N[C@H](C(=O)N[C@@H](CC(=O)O)C(=O)N[C@@H](CC(C)C)C(=O)N[C@@H](CCCCN)C(=O)N[C@@H](CCC(=O)O)C(=O)N[C@@H](CC(C)C)C(N)=O)[C@@H](C)CC [EK1],α-Helicity (%),13.6%
